Data on one compound can be found in patent US20220160712A1, “METHODS OF TREATING RHEUMATOID ARTHRITIS AND FOR PREDICTING THE RESPONSE TO METHOTREXATE” (CHAN ZUCKERBERG BIOHUB, INC., priority 2020, published 2022).

Data set [1] concerns complex human gut microbial community. The data set can be described thus: Ex vivo incubation of RA patient stool samples with MTX. Format: cell-based. On the procedure:
All work was carried out in an anaerobic chamber. For each patient, stool was aliquoted into a pre-equilibrated cryovial, diluted in reduced PBS at 10 ml per 1 gram of stool, and vortexed to homogenize the sample. The sample was spun at ˜20 g for 1 minute on a mini-centrifuge to facilitate settling of sediment, and the sediment-free supernatant was then aliquoted into a new pre-equilibrated cryovial for evaluation of ex vivo growth. Growth was evaluated by inoculating liquid BHI with 1:50 dilution of this fecal slurry, with OD600 readings performed every 15 minutes for 48 hours with a 2-minute shake prior to each reading. Samples were treated with MTX 100 μg/ml or an equal volume of DMSO at time zero. Each patient's fecal slurry and treatment was evaluated in quadruplicate. Samples from four individuals (Donors 2, 4, 5, and 6) underwent 16S sequencing and analysis at 0 and 24 hours after of treatment with either DMSO or MTX treatments (4 replicates per treatment group) as described in the section titled “16S-seq of humanized mouse gut microbiota.”
Reads that were not already demultiplexed were demultiplexed using QIIME (Caporaso et al., 2010) v1.9.1 (split_libraries_fastq.py). For all reads except NYU RA patient samples, QIIME2 (Bolyen et al., 2019)(v 2020.2) was used to trim reads, denoise the data, and create a feature table using the following commands: qiime cutadapt trim-paired, qiime dada2 denoise-paired, qiime feature-table filter-samples. Within QIIME2, taxonomy was assigned using the DADA2 et al., (2016), Nat Methods 13, 581-583) implementation of the RDP Naïve Bayesian classifier (Wang, Q., et al., (2007), Appl Environ Microbiol 73, 5261-5267) using the DADA2-formatted SILVA v128 training set; taxonomic assignments to the species level were chosen by exact match of the ASV to the reference database, and where multiple matches were present, all are reported. For figures and in the text, genus and species assignments are reported when available, and when neither was available, the family taxonomic assignment was included; a unique ASV identifier is also reported. This ASV identifier can be used to look up the full taxonomic assignment from kingdom to species and the associated sequence variant in Table S2B. A phylogenetic tree was constructed in QIIME2 using the command: phylogeny align-to-tree-mafft-fasttree. The QIIME2R package was used to import QIIME2 artefacts into R (https://github.com/jbisanz/qiime2R). For RA patient samples from NYU, reads were demultiplexed using QIIME (Caporaso et al., 2010) v1.9.1 (split_libraries_fastq.py) before denoising and processing with DADA2 (Callahan et al., 2016a) v1.1.5 under MRO v3.2.5. Taxonomy was assigned using the DADA2 implementation of the RDP classifier (Wang et al., 2007) using the DADA2-formatted SILVA v128 training set (benjjneb.github.io/dada2/assign.html). Low abundance taxa were filtered out […] as well as ASVs that could not be assigned taxonomy past the kingdom level. Diversity metrics were generated using Vegan (v2.5-6) and Phyloseq (v1.30.0) (McMurdie, P.J., and Holmes, S. (2013), PLoS One 8, e61217), with principal coordinate analysis (PCoA) or principal components analysis (PCA) carried out with Ape (v5.3) or Vegan, respectively. Analyses were carried out on either: (1) centered log2-ratio (clr) normalized taxonomic abundances calculated as Aclr=[log2(A1/ga), log2(A2/ga), . . . log2(An/ga),], where A is a vector of non-zero read counts and ga is the geometric mean of all values of A, or (2) relative abundance calculated as proportion of reads. ANOSIM and PERMANOVA were used to detect changes in community composition using counts from rarefied data and Bray-Curtis distances. DESeq2 (v1.26.0) (Love, M. I., et al., (2014), Genome Biol 15, 550) was used to determine differentially abundant taxa on raw count data. Some ASVs were reported to have log2 fold changes that were 20 or higher. […]

The conditions of data set [2]: MTX 1 mg/kg or 50 mg/kg daily, short treatment durations (2-4 days).
Description: C57BL/6J mice (females, ages 6-16 weeks) were obtained from the UCSF Gnotobiotics core facility (gnotobiotics.ucsf.edu) and housed in gnotobiotic isolators for the duration of each experiment (Class Biologically Clean). […] Housing: Mice were co-housed in some experiments, distributed across multiple cages per treatment group, or individually housed. Individually housed mice were housed in Single Mouse Duplexed Cages (Thoren, Cat #15). Colonization: Mice were colonized with stool from human donors, either a healthy male donor or a treatment-naive (re-MTX) female and male donors with rheumatoid arthritis [as defined by American College of Rheumatology classification criteria, either (Arnett, F. C., et al. (1988), Arthritis Rheum 31, 315-324) or (Aletaha, D., et al. (2010), Arthritis Rheum 62, 2569-2581)]; samples obtained 1 month after starting MTX were used for “post-MTX” transplants. For colonization with a human microbiome, stool was diluted 1:10 g/mL in reduced PBS or saline and homogenized in an anaerobic chamber using pre-equilibrated reagents and supplies. Insoluble material was separated from supernatant by centrifugation at 50 g for 1 minute. Aliquots of supernatant (100-200 μl per mouse) were gavaged into mice. […] Mice were monitored and weighed daily during treatment. […]
[3] abbreviates: MTX 100 μg/ml, 24 hours, 4 ex vivo communities, padj<0.01.

Take `CN(Cc1cnc2nc(N)nc(N)c2n1)c1ccc(C(=O)N[C@@H](CCC(=O)O)C(=O)O)cc1` [MTX, methotrexate]: the “number of genera with significant shifts in abundance” value in data set [1] (MTX 100 μg/ml) is recorded as 17. For the same compound, in data set [1] (setting [3]), the Actinobacteria abundance entry is on record as “increased” and the Bacteroidetes abundance result was “decreased”. Moreover, the lag phase entry in data set [1] (MTX 100 μg/ml, 48 hours) is “significant delay”. Further, the carrying capacity result in data set [1] (MTX 100 μg/ml, 48 hours, p=1.9×10-6, paired Student's t-test) is on record as “significant decrease”. In addition, in data set [1] (MTX 100 μg/ml, 4 patient samples), the “richness (16S-seq of endpoint samples)” value was “significant decrease”. In data set [1] (MTX 100 μg/ml, padj<0.01, DESeq), the “number of ASVs with significant shifts in abundance” value amounted to 20. Further, the “growth of complex microbial communities” value in data set [1] (stool of 30 MTX-naive patients, MTX 100 μg/ml vs vehicle, 48 hours) was “significantly impaired”. The weight loss result in data set [2] is “minimal weight loss”.
